In patent publication US12156880B2, “Heterocyclic RIP1 kinase inhibitors” (Rigel Pharmaceuticals, Inc., priority 2021, dated 2024) one finds IC50 data, which are given here for 17 compounds.

One assay deals with U937 cells. The experiment in a line: U937 cell necroptosis assay (TNFa + zVAD, CellTiter-Glo recovery). In kind it is cell-based. Particulars: Homo sapiens, U-937, 18 h, TNFa 2 ng/mL + zVAD-fmk, read-out: U937 Zvad TNF CTG Recovery, U937, TNFa + zVAD (IC50). The protocol: In this example, U937 and L929 cells were exposed to compounds of the present disclosure and a cell necroptosis assay was conducted to evaluate the compounds' activity against human RIP1 and murine RIP1.
U937 and L929 cells were obtained from the American Type Culture Collection (Manassas, VA, USA). Both cells were maintained in logarithmic growth phase in complete RPMI 1640 media (Sigma, ST Louis, MO, USA) supplemented with 10% fetal bovine serum (Sigma, ST Louis, MO, USA) at 37° C. with 5% CO2. For necroptosis assay, L929 cells were plated for 18 h in 100 μL/well medium at 10K cells/well in Costar 96-well black clear-bottom plates (Fisher Scientific, Hampton, NH, USA); U937 cells were plated on the day of the assay in 50 μL/well medium containing 60 uM zVAD-fmk (Lonza, Basel, Switzerland) at 50K cells/well. Medium from L929 cells were removed from the 96-well plates and replaced with 50 μL/well new medium containing 40 uM zVAD-fmk. Each compound of the present disclosure evaluated in this example was serially diluted in DMSO from 2.5 mM in 4-fold dilutions, and then diluted 1:125 in complete medium. 50 μL/well 2× of the compound was then added to the cells in the plates. The cells were pre-incubated with the compound for 1 hour at 37° C. with 5% CO2 and before addition of 10 μL/well 11×TNFa (Peprotech, Rocky Hill, NJ, USA) to give a final concentration of 2 ng/mL for TNFa. The relative amount of necroptosis cells was determined by luminescent using a Wallac Victor2 Luminometer (PerkinElmer, Waltham, MA, USA) and a CellTiter-Glo® Luminescent Cell Viability Reagent Assay (Promega, Madison, WI, USA) added per manufacturer instructions after 18 hours of TNFa stimulation at 37° C. with 5% CO2. This example establishes that embodiments of the compounds described herein have unexpectedly potent activity against human RIP1 and murine RIP1, which allows their assessment in in vivo mouse models of disease.

The next assay has as its target T1, RIPK1 (Homo sapiens, UniProt Q13546).
T1 sequence (Q13546 1-671): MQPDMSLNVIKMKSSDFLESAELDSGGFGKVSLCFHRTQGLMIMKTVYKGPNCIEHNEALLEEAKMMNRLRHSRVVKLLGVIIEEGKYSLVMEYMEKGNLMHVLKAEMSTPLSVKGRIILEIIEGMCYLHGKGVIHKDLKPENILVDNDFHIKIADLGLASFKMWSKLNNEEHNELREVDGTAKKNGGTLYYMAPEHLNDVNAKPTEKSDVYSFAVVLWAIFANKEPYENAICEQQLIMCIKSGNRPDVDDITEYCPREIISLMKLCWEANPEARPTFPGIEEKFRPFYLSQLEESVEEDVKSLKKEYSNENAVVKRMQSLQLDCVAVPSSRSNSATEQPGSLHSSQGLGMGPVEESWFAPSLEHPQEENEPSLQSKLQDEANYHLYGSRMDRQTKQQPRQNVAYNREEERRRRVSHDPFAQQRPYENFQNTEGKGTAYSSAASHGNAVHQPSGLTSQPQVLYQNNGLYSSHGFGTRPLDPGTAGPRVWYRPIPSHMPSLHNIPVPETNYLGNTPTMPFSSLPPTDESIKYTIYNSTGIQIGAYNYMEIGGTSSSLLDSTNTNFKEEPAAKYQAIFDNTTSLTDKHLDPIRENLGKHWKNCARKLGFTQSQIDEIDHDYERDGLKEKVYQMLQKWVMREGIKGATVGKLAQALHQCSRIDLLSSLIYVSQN
The experiment in a line: RIPK1 ADP-Glo biochemical kinase assay. Particulars: read-out: RIPK1 ADP-Glo Kinase (IC50). The procedure: In this example, compounds of the disclosure were evaluated using a biochemical assay using the ADP-Glo™ technology.
ADP-Glo™ (Promega, Madison, WI, USA) reagents were thawed at ambient temperature. Kinase Detection Reagent was prepared by mixing kinase detection buffer with the lyophilized kinase detection substrate.
A […] stock volume of 5× Reaction Kinase Buffer was made by mixing 1000 μl of 1M MgCl2, 500 μl of 1M Tris-HCL pH7.4, 0.5 mg/ml (25 mg) of BSA, and 3475 μl of distilled H2O. A 3 ml 2× working stock volume of Reaction Kinase Buffer was made containing a final concentration of 100 μM DTT and 4 mM MnCl2.
Components of RIPK1 enzyme (Rigel Pharmaceuticals, South San Francisco, CA, USA) were thawed on ice. Diluted RIPK1 was prepared in 1× Kinase Reaction Buffer (diluted from 2× buffer) to 31 ng/well.
1.0 ul of diluted compound was added to a 384 well plate in duplicate. […] The final reaction volume was 5.0 μl.
The plate was quickly centrifuged and the reaction was incubated at 30° C. for 30 minutes. Adding 5 μl of ADP-Glo™ terminated the reaction. The plate was quickly centrifuged and the reaction was incubated at room temperature for 40 minutes. Kinase Detection Reagent was then added and incubated at room temperature for 30 minutes. The relative light unit (RLU) of kinase reaction was determined by luminescent (Luminescence 0.1 s) using a Wallac Victor2 Luminometer (PerkinElmer, Waltham, MA, USA).

Molecules are shown by their SMILES.

`CN1C(=O)[C@@H](NC(=O)n2cc(Cc3cccnn3)cn2)COc2ccc(Br)cc21` [I-25, (S)—N-(7-Bromo-5-methyl-4-oxo-2,3,4,5-tetrahydrobenzo[b][1,4]oxazepin-3-yl)-4-(pyridazin-3-ylmethyl)-1H-pyrazole-1-carboxamide]: the IC50 with U937 cells worked out at 4120 nM. For the compound `CN1C(=O)[C@@H](NC(=O)n2cc(Cc3ncccn3)cn2)COc2ccc(C#CC(C)(C)O)cc21` [I-31, (S)—N-(7-(3-Hydroxy-3-methylbut-1-yn-1-yl)-5-methyl-4-oxo-2,3,4,5-tetrahydrobenzo[b][1,4]oxazepin-3-yl)-4-(pyrimidin-2-ylmethyl)-1H-pyrazole-1-carboxamide], the results for the half-inhibitory concentration (IC50) in the assay on U937 cells and at RIPK1 were 1980 nM and 106 nM, respectively. The matching figures for `CN1C(=O)[C@@H](NC(=O)n2cc(Oc3cccc(F)n3)cn2)COc2ccc(C#CC(C)(C)O)cc21` [I-112, (S)-4-((6-Fluoropyridin-2-yl)oxy)-N-(7-(3-hydroxy-3-methylbut-1-yn-1-yl)-5-methyl-4-oxo-2,3,4,5-tetrahydrobenzo[b][1,4]oxazepin-3-yl)-1H-pyrazole-1-carboxamide]: 1850 nM and 80.4 nM. On the same counts, the results for `CN1C(=O)[C@@H](NC(=O)c2cc(Oc3ccc(C(F)(F)F)nc3)ccn2)COc2ccc(C#CC(C)(C)O)cc21` [I-80, (S)—N-(7-(3-hydroxy-3-methylbut-1-yn-1-yl)-5-methyl-4-oxo-2,3,4,5-tetrahydrobenzo[b][1,4]oxazepin-3-yl)-4-((6-(trifluoromethyl)pyridin-3-yl)oxy)picolinamide] are 7310 nM and 4530 nM. As to `CN1C(=O)[C@@H](NC(=O)n2cc(Cc3ccccn3)cn2)COc2ccc(C#CC(C)(C)O)cc21` [I-8, (S)—N-(7-(3-Hydroxy-3-methylbut-1-yn-1-yl)-5-methyl-4-oxo-2,3,4,5-tetrahydrobenzo[b][1,4]oxazepin-3-yl)-4-(pyridin-2-ylmethyl)-1H-pyrazole-1-carboxamide], the IC50 on RIPK1 turned out to be 26.4 nM. Take `Cc1cccc(Cc2cnn(C(=O)N[C@H]3COc4ccc(Br)cc4N(C)C3=O)c2)n1` [I-19, (S)—N-(7-Bromo-5-methyl-4-oxo-2,3,4,5-tetrahydrobenzo[b][1,4]oxazepin-3-yl)-4-((6-methylpyridin-2-yl)methyl)-1H-pyrazole-1-carboxamide]: the IC50 in the assay on U937 cells stood at 264 nM.

Turning to `CN1C(=O)[C@@H](NC(=O)c2cc(O)ccn2)COc2ccc(C#CC(C)(C)O)cc21` [I-86, (S)-4-hydroxy-N-(7-(3-hydroxy-3-methylbut-1-yn-1-yl)-5-methyl-4-oxo-2,3,4,5-tetrahydrobenzo[b][1,4]oxazepin-3-yl)picolinamide], the IC50 in the assay on U937 cells came out at 59600 nM. `Cc1noc(C)c1Cc1ccnc(C(=O)N[C@H]2COc3ccc(C#CC4(O)COC4)cc3N(C)C2=O)c1` [I-69, (S)-4-((3,5-dimethylisoxazol-4-yl)methyl)-N-(7-((3-hydroxyoxetan-3-yl)ethynyl)-5-methyl-4-oxo-2,3,4,5-tetrahydrobenzo[b][1,4]oxazepin-3-yl)picolinamide]: the IC50 with U937 cells is 2830 nM; at RIPK1, 326 nM. For the compound `CN1C(=O)[C@@H](NC(=O)c2cc(Oc3ccccn3)ccn2)COc2ccc(C#CC(C)(C)O)cc21` [I-128, (S)—N-(7-(3-hydroxy-3-methylbut-1-yn-1-yl)-5-methyl-4-oxo-2,3,4,5-tetrahydrobenzo[b][1,4]oxazepin-3-yl)-4-(pyridin-2-yloxy)picolinamide], the half-inhibitory concentration (IC50) came out at 199000 nM with U937 cells and 2150 nM at RIPK1. On the same counts, the results for `CN1C(=O)[C@@H](NC(=O)n2cc(Cc3cccnn3)cn2)COc2ccc(C#CC(C)(C)O)cc21` [I-17, (S)—N-(7-(3-Hydroxy-3-methylbut-1-yn-1-yl)-5-methyl-4-oxo-2,3,4,5-tetrahydrobenzo[b][1,4]oxazepin-3-yl)-4-(pyridazin-3-ylmethyl)-1H-pyrazole-1-carboxamide] are 715 nM and 111 nM.

Regarding `CN1C(=O)[C@@H](NC(=O)n2cc(Cc3ccc(F)nc3F)cn2)COc2ccc(Br)cc21` [I-49, (S)—N-(7-Bromo-5-methyl-4-oxo-2,3,4,5-tetrahydrobenzo[b][1,4]oxazepin-3-yl)-4-((2,6-difluoropyridin-3-yl)methyl)-1H-pyrazole-1-carboxamide], the IC50 in the assay on U937 cells was found to be 170 nM; at RIPK1, 207 nM. On the same counts, the results for `CN1C(=O)[C@@H](NC(=O)c2cc(Cc3cccc(O)n3)ccn2)COc2ccc(C#CC3(O)COC3)cc21` [I-10, (S)—N-(7-((3-hydroxyoxetan-3-yl)ethynyl)-5-methyl-4-oxo-2,3,4,5-tetrahydrobenzo[b][1,4]oxazepin-3-yl)-4-((6-hydroxypyridin-2-yl)methyl)picolinamide] are 2830 nM and 304 nM. For `CN1C(=O)[C@@H](NC(=O)n2cc(Cc3ccc(F)nc3)cn2)COc2ccc(Br)cc21` [I-24, (S)—N-(7-Bromo-5-methyl-4-oxo-2,3,4,5-tetrahydrobenzo[b][1,4]oxazepin-3-yl)-4-((6-fluoropyridin-3-yl)methyl)-1H-pyrazole-1-carboxamide], the half-inhibitory concentration (IC50) in the assay on U937 cells was 69.8 nM. With `CN1C(=O)[C@@H](NC(=O)c2cc(Oc3ccccn3)ccn2)COc2ccc(C#CC3(O)COC3)cc21` [I-129, (S)—N-(7-((3-hydroxyoxetan-3-yl)ethynyl)-5-methyl-4-oxo-2,3,4,5-tetrahydrobenzo[b][1,4]oxazepin-3-yl)-4-(pyridin-2-yloxy)picolinamide], the IC50 in the assay with U937 cells came to 1200 nM; on RIPK1, 2280 nM. In the case of `CN1C(=O)[C@@H](NC(=O)c2cc(O)ccn2)COc2ccc(C#CC3(O)COC3)cc21` [I-89, (S)-4-hydroxy-N-(7-((3-hydroxyoxetan-3-yl)ethynyl)-5-methyl-4-oxo-2,3,4,5-tetrahydrobenzo[b][1,4]oxazepin-3-yl)picolinamide], the concentration for half-maximal inhibition (IC50) in the assay with U937 cells was found to be 28200 nM.

As to `CN1C(=O)[C@@H](NC(=O)c2cc(Oc3ccc(C(F)(F)F)nc3)ccn2)COc2ccc(C#CC3(O)COC3)cc21` [I-81, (S)—N-(7-((3-hydroxyoxetan-3-yl)ethynyl)-5-methyl-4-oxo-2,3,4,5-tetrahydrobenzo[b][1,4]oxazepin-3-yl)-4-((6-(trifluoromethyl)pyridin-3-yl)oxy)picolinamide], the concentration for half-maximal inhibition (IC50) is 5290 nM in the assay on U937 cells and 392 nM on RIPK1. On the same counts, the results for `CN1C(=O)[C@@H](NC(=O)n2cc(Cc3ncccn3)cn2)COc2ccc(Br)cc21` [I-30, (S)—N-(7-Bromo-5-methyl-4-oxo-2,3,4,5-tetrahydrobenzo[b][1,4]oxazepin-3-yl)-4-(pyrimidin-2-ylmethyl)-1H-pyrazole-1-carboxamide] are 7210 nM and 480 nM.
